This data set has as its system oligonucleotide made from sequence number 2. Put plainly: Stability of the double strand (Tm value). Format: physicochemical. The following applies: double strand with oligonucleotide of sequence number 2; annealing buffer 10 mM sodium phosphate (pH 7.0), 1 M NaCl.

[TBDPS-acyc] = code of the source, not defined here; d = 2'-deoxy (DNA)

Take “Comparative Example 2: Double-stranded oligonucleotide composed of the oligonucleotides made from sequence number 3 and sequence number 2 (chain 1 AAGGAAAAGAGGAAAGA; chain 2 TCTTTCCTCTTTTCCTT; DNA, backbone not given here)”: the Tm value worked out at 57.7 °C.

“Example 10: Double-stranded oligonucleotide analog composed of the oligonucleotide analog of sequence number 1 and the oligonucleotide of sequence number 2 (chain 1 AAGGAAAAGAGGAAAGA; chain 2 TCTTTCCTCTTTTCCTT; chain 1: sugars from the 5' end d7 [TBDPS-acyc]1 d9, backbone not given here; chain 2: DNA, backbone not given here)”: the Tm value was found to be 49.1 °C.

Values taken from patent publication US20070249548A1, “Nucleoside Analog or Salts of the Same” (GIFU UNIVERSITY, priority 2004, published 2007).
